The nature of the series: Comparison of thermal stability of 5-MP salts (pure unformulated compound, colorimetric assay for intact thiol group). It counts as physicochemical. As to conditions: for Thermal Stability % Remaining: pure unformulated salt. How it is done:
Thus, in order to evaluate the relative stability of several salts of 5-mercaptopyridoxine, the test salts selected (i.e., the ethane-1,2-disulfonate, the phosphate, the sulfamate, the nitrate and the hydrochloride) were subjected to accelerated conditions of high temperature as the pure, unformulated, compound. The high temperature date obtained at 80° C. and at 105° C. is conventionally used in the pharmaceutical industry to screen compounds in as short a time as possible. Where a number of derivatives or salts are available, comparative data can be obtained and the test compounds can be ranked in an expected order of stability. The thermally stressed salts were assayed colorimetrically for intact thiol group. The ethanedisulfonate, hydrochloride and sulfamate salts also were subjected to NMR analysis to confirm the chemical analysis. The NMR data supports the chemical data.

Molecules are shown by their SMILES. Where a name gives a salt, the structure may show the parent alone.

Data on 5 compounds can be found in US4046897A, “5-Mercaptopyridoxine alkanesulfonates and methods of use and pharmaceutical compositions” (Merck & Co., Inc., priority 1976, dated 1977).

On to `Cc1ncc(CS)c(CO)c1O` [Ethanedisulfonate, Bis(2-methyl-3-hydroxy-4-hydroxymethyl-5-mercaptomethyl-pyridinium) ethane-1,2-disulfonate], for which the “Thermal Stability % Remaining” value reads like this: (80° C, 1 week, 10080 min) 101.0%; (80° C, 3 weeks, 30240 min) 100.2%; (105° C, 3 days, 4320 min) 97.3%; (105° C, 7 days, 10080 min) 99.4%. Moreover, the “relative thermal/chemical stability among 5-MP salts (in words)” value (at the temperatures employed (80° C and 105° C)) is “most stable salt”.
Take `Cc1ncc(CS)c(CO)c1O` [Hydrochloride, 5-mercaptopyridoxine hydrochloride]: the “Thermal Stability % Remaining” value was 70.5% (80° C, 1 week, 10080 min, hydrochloride); 57.3% (80° C, 3 weeks, 30240 min, hydrochloride); 57.3% (105° C, 3 days, hydrochloride, 4320 min).
For `Cc1ncc(CS)c(CO)c1O` [Nitrate], for the setting “80° C, 1 week, 10080 min”, the “Thermal Stability % Remaining” value is listed as 87.2%.
For the compound `Cc1ncc(CS)c(CO)c1O` [Phosphate], the “Thermal Stability % Remaining” value is reported as 93.0% (105° C, 3 days, 4320 min) and 58.0% (105° C, 7 days, 10080 min).
With `Cc1ncc(CS)c(CO)c1O` [Sulfamate], the “Thermal Stability % Remaining” value by setting is: (80° C, 1 week, 10080 min) 94.0%; (80° C, 3 weeks, 30240 min) 75.7%; (105° C, 3 days, 4320 min) 13.0%; (105° C, 7 days, 10080 min) 8.8%.
